The text below walks through data of publication PMC9653733, “Characterization of a Potent, Selective, and Safe Inhibitor, Ac15(Az8)2, in Reversing Multidrug Resistance Mediated by Breast Cancer Resistance Protein (BCRP/ABCG2)” (International Journal of Molecular Sciences, 2022).

Values joined by “and” are separate entries in the source; they are usually repeats but may differ in a detail not shown here. Equal values may be shown once.

The test system of one series is S1M180 cells. Briefly: Cytotoxicity of anticancer drugs in S1M180 (0.1% DMSO). It counts as cell-based, human. How it is done: In total, 6500 cells of S1M180 or MCF7-MX100 were incubated with various doses of topotecan or DOX and modulators. The final volume in each well of 96-well plates was 200 µL. The plates were then incubated for 5 days at 37 °C. The CellTiter 96 AQueous Assay (Promega) was used to measure cell proliferation. According to the manufacturer’s instructions, MTS (2 mg/mL) and PMS (0.92 mg/mL) were mixed in a ratio of 20:1. An aliquot (10 μL) of the freshly prepared MTS/PMS mixture was added into each well, and the plate was incubated for 2 h at 37 °C. Optical absorbance at 490 nm was then recorded with microplate absorbance reader (Bio-Rad). IC50 values were calculated from the dose-response curves of MTS assays (Prism 4.0).

For a further series, the system named is S1 cells. Briefly: Cytotoxicity of anticancer drugs in parental S1 (0.1% DMSO). Type of series: cell-based, human.
In the next series the target is T1, BCRP (S1M180 cells) (Homo sapiens, UniProt Q9UNQ0, R482G).
T1 construct: endogenous in cells; host or cells: S1M180 (human colon carcinoma, mitoxantrone-selected)
T1 sequence (Q9UNQ0 1-655 R482G): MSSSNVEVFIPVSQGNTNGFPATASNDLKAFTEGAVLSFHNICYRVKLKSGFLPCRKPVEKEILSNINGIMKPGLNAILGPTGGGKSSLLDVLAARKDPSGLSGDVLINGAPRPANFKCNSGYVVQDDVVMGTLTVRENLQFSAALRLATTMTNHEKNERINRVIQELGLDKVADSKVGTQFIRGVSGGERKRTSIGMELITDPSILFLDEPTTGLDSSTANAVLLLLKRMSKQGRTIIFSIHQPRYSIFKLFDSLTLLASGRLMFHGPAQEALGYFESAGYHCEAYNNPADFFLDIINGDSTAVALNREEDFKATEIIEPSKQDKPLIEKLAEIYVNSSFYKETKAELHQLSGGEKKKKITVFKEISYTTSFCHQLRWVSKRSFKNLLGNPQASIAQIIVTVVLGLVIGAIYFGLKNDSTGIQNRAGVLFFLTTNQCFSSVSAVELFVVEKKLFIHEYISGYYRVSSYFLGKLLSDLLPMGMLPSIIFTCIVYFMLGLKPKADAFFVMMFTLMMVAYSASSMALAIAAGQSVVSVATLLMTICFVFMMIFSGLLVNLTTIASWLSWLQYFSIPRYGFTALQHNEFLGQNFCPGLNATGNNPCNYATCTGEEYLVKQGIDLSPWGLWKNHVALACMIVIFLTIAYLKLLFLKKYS
Briefly: Drug accumulation assay in S1M180. It counts as cell-based. To be noted: 20 µM DOX, 1 h; p < 0.001. How it is done: Figure 2 Effect of Ac15(Az8)2 on intracellular accumulation of BCRP-substrates in S1 and S1M180 cells. Cells were pre-treated with 0.1% DMSO, 100 nM, or 1000 nM Ac15(Az8)2 and then incubated with BCRP substrates. (A) Topotecan accumulation. (B) DOX accumulation. The intracellular level of drug after treatment was normalized to that of S1 cells after incubating with 0.1% DMSO. Student unpaired two-tailed t-test was conducted as indicated (** p < 0.01, *** p < 0.001). (C) To measure DOX efflux, S1M180 cells were pre-incubated with medium containing 20 μM DOX for 1 h at 37 °C. Cells were then washed and further incubated with or without 1 µM of Ac15(Az8)2. At 0, 5, 10, 30, 60, 120, and 180 min, the cells were harvested to measure the intracellular DOX level. (D) To determine intracellular Ac15(Az8)2 concentration, 1 × 10^7 cells were incubated with 1 µM of Ac15(Az8)2 at 37 °C for 2 h. Cells were then washed with ice-cold PBS. To the cell pellet, acetonitrile was added to lyse the cells, and the supernatant was saved for Ac15(Az8)2 determination using UPLC–MS/MS.
Briefly, 1 × 10^6 cells of S1 and S1M180 cells were pre-incubated with 100 nM or 1000 nM Ac15(Az8)2 for 2 h and followed by 50 µM of topotecan or 20 µM of DOX for 1-h incubation. DMSO at 0.1% was used as a negative control. After incubation, the cells were spun down and washed with cold PBS, pH7.4 for 2 times and lysed with 100 μL of lysis buffer (0.75 M HCl, 0.2% Triton-X100 in isopropanol) with vigorous vortex. The lysate was further incubated at 37 °C for 20 min. After incubation, the lysate was spun down, and 100 μL of supernatant was saved and seeded into a black 96-well microtiter plate. The fluorescence level of DOX was determined by a fluorescence microplate reader (BMG Technologies) using excitation and an emission wavelength pair of 460 nm and 610 nm.

The next series concerns MRP1 (2008/MRP1 cells). To be noted: mean ± S.D.; ref [42]; read-out: EC50 needed for reversing MRP1-mediated DOX resistance, 2008/MRP1; cited from earlier work.
A further series concerns BCRP (MCF7-MX100 cells). To be noted: concentration reducing IC50 of anticancer drug by half; mean ± S.D.; ref [42]; read-out: EC50 needed for reversing BCRP-mediated topotecan resistance, MCF7-MX100; cited from earlier work.
The next series concerns L929. The conditions noted are these: normal mouse fibroblast cells; mean ± S.D.; ref [42]; read-out: IC50 towards L929; cited from earlier work.

For orientation: IC50 means the concentration that inhibits the measured activity by half. For `COc1cccc2c1C(=O)c1c(O)c3c(c(O)c1C2=O)C[C@@](O)(C(=O)CO)C[C@@H]3O[C@H]1C[C@H](N)[C@H](O)[C@H](C)O1` [DOX, doxorubicin], the 50% inhibitory concentration (IC50) amounted to 13.4 µM in the series on S1M180 cells (Homo sapiens, S1-M1-80, S1M180 + 0.1% DMSO, mean ± S.D., n = 3, read-out: IC50 of DOX) and 0.1 ± 0.02 µM in the series with S1 cells (Homo sapiens, S1 + 0.1% DMSO, mean ± S.D., n = 3, read-out: IC50 of DOX). In the series with S1M180 cells (S1M180 + 0.1% DMSO (reference)), the “RF (Relative Fold), DOX” value amounted to 1.0. Further, in the series on S1 cells (S1 + 0.1% DMSO vs S1M180 + 0.1% DMSO), the “RF (Relative Fold), DOX: resistance of S1M180 compared to parental S1” value was 133.7. In addition, the “DOX accumulation in S1M180, fold less than parental S1” value on BCRP (S1M180 cells) is about 4.6 fold.

For the compound `COc1ccc2c3c([nH]c2c1)[C@H](CC(C)C)N1C(=O)[C@H](CCC(=O)OC(C)(C)C)NC(=O)[C@@H]1C3` [Ko143, reference compound], the EC50 with MRP1 (2008/MRP1 cells) was 1.95 ± 0.354 µM; with BCRP (MCF7-MX100 cells), […]. Besides, the half-inhibitory concentration (IC50) in the series on L929 was 29 µM and 29.2 µM.
